Experimental data: US11136292B2, “Plant growth regulator compounds” (SYNGENTA PARTICIPATIONS AG, priority 2016, dated 2021)
Like-named read-outs stand apart in the source and are kept apart here.

System: NK Falkone 2015 corn seeds
Assay: Corn seed germination under cold stress (Example B1)
Assay type: in vivo
Conditions: Zea mays, cold stress 15° C.; for change in vivo at 2 µM: Rate 2 μM; for change in vivo at 10 µM: Rate 10 μM; for change in vivo at 50 µM: Rate 50 μM; for change in vivo at 250 µM: Rate 250 μM
Protocol: The effect of compounds of formula (I) on the germination of NK Falkone 2015 corn seeds under cold stress was evaluated as follows. NK Falkone corn seeds were sorted by size using 2 sieves, one excluding very big seeds and the other with round holes of 8 to 9 mm diameter. The seeds retained by the latter sieve were used for the germination test. The corn seeds were placed in 24 well plates (each plate was considered as one experimental unit or replicate). Germination was initiated by the addition of 250 μl of distilled water containing 0.5% DMSO per well as a means for compound solubilization. 8 replicates (ie, 8 plates) were used for each treatment characterization. Plates were sealed using seal foil (Polyolefin Art. Nr. 900320) from HJ-BIOANALYTIK. All plates were placed horizontally on trolleys in a climatic chamber at 15° C. The experiment was laid out in a completely randomized design in climatic chamber with 75% Relative Humidity. Foils were pierced, one hole per well using a syringe after 72 hours for experiments performed at 15° C.
Germination was followed over time by taking photographs at different time points. Image analysis was performed automatically with a macro which was developed using the Image J software. A dynamic analysis of germination was carried out by fitting a logistic curve. Three parameters were calculated from the logistic curve: the T50; the slope and the plateau. All three parameters have a high agronomical relevance and are key requirements to ensure a good early crop-establishment. All the values are expressed as percentages compared to an untreated control. All the three parameters are calculated considering 8 replicates and the kinetic parameters are separately determined for each germination curve. Data in bold indicate germination enhancing statistically significant differences between treated seeds and untreated control (p<0.05). The T50 corresponds to the time needed for half of the seed population to germinate. Higher negative %-values indicate faster germination. The slope indicates how synchronous the germination of the seed population is. Positive values indicate steeper curve; the steeper the curve, the better and more uniform the germination is.

[1] = slope of logistic germination curve, read-out: Slope (% vs control)
[2] = time for half of seeds to germinate, control T50 = 110 hours, read-out: T50 (% vs control)

SMILES	change in vivo at 2 µM [1]	change in vivo at 2 µM [2]	change in vivo at 10 µM [1]	change in vivo at 10 µM [2]	change in vivo at 50 µM [1]	change in vivo at 50 µM [2]	change in vivo at 250 µM [1]	change in vivo at 250 µM [2]
CCOC(=O)/C(=C/OC1C=C(C)C(=O)O1)C1CCc2ccccc21 (stereo not shown) [Compound I-1]	8.1%	-0.5%	10%	1.6%	27.9%	-2.8%	142%	-7.2%
CCOC(=O)/C(=C/OC1OC(=O)C(C)=C1C)C1CCc2ccccc21 (stereo not shown) [Compound I-2]	-11.8%	2.3%	18.1%	-3%	47%	-6.2%	121%	-10.1%
CCOC(=O)/C(=C/OC1C=C(C)C(=O)N1c1cc(C(F)(F)F)cc(C(F)(F)F)c1)C1CCc2ccccc21 (stereo not shown) [Compound I-7]	63.9%	-3.4%	69.8%	-3.5%	78.8%	-6.6%	11.3%	-1.8%
COC(=O)/C(=C/OC1C=C(C)C(=O)O1)C1CCc2ccccc21 (stereo not shown) [Compound I-10]	8.2%	-0.9%	10.7%	-0.8%	30.3%	-3.3%	82.5%	-7.4%
COC(=O)/C(=C/OC1OC(=O)C(C)=C1C)C1CCc2ccccc21 (stereo not shown) [Compound I-11]	11.4%	-1%	7.4%	0.2%	20.1%	-5.1%	89.6%	-6.9%
CNC(=O)/C(=C/OC1C=C(C)C(=O)O1)C1CCc2ccccc21 (stereo not shown) [Compound I-37-1]	10.8%	-1.3%	-15.7%	-2.5%	5.2%	-2.6%	51.7%	-4.6%
CNC(=O)/C(=C/OC1C=C(C)C(=O)N1c1cc(C(F)(F)F)cc(C(F)(F)F)c1)C1CCc2ccccc21 (stereo not shown) [Compound I-55-1]	-8.1%	1.7%	3.8%	-1.4%	61.1%	-6.8%	89.8%	-10.6%
CCOC(=O)/C(=C/OC1C=C(C)C(=O)O1)C1CCc2cc(OC)c(OC)cc21 (stereo not shown) [Compound I-64]	1.1%	-1.4%	-1.6%	-3.2%	27.9%	-4.6%	83.8%	-10.7%
CCOC(=O)/C(=C/OC1OC(=O)C(C)=C1C)C1CCc2cc(OC)c(OC)cc21 (stereo not shown) [Compound I-65]	1%	-0.9%	18.8%	-3.1%	23%	-2.6%	123%	-12.6%
CCOC(=O)/C(=C/OC1C=C(C)C(=O)O1)C1CCc2cc3c(cc21)OCO3 (stereo not shown) [Compound I-66]	22.6%	-5.2%	2.9%	-2.9%	34.5%	-5.1%	31.6%	-5.8%
CCOC(=O)/C(=C/OC1C=C(C)C(=O)O1)C1CCc2c(C)cccc21 (stereo not shown) [Compound I-68]	23.4%	-1.2%	3.8%	-0.6%	44.7%	-5.7%	113%	-6.8%
